Assay results taken from US20260226000A1, “Methadone Active Agents and Methods of Use Thereof” (Ensysce Biosciences Inc., priority 2023, published 2026).
Where a name gives a salt, the structure may show the parent alone.

Key:
[1] = Maximally tolerated dose study by oral gavage administration
[2] = target: hERG (human ether-à-go-go-related gene) channel expressed in CHO cells (Homo sapiens, UniProt Q12809); test: ScreenPatch assay, hERG ion channel block (SyncroPatch 384PE patch clamp); settings: for Methadone Active Agent/Methadone Ratio (hERG IC50): IC50 relative to racemic methadone HCl
Chain of hERG (human ether-à-go-go-related gene) channel expressed in CHO cells (Q12809 whole entry): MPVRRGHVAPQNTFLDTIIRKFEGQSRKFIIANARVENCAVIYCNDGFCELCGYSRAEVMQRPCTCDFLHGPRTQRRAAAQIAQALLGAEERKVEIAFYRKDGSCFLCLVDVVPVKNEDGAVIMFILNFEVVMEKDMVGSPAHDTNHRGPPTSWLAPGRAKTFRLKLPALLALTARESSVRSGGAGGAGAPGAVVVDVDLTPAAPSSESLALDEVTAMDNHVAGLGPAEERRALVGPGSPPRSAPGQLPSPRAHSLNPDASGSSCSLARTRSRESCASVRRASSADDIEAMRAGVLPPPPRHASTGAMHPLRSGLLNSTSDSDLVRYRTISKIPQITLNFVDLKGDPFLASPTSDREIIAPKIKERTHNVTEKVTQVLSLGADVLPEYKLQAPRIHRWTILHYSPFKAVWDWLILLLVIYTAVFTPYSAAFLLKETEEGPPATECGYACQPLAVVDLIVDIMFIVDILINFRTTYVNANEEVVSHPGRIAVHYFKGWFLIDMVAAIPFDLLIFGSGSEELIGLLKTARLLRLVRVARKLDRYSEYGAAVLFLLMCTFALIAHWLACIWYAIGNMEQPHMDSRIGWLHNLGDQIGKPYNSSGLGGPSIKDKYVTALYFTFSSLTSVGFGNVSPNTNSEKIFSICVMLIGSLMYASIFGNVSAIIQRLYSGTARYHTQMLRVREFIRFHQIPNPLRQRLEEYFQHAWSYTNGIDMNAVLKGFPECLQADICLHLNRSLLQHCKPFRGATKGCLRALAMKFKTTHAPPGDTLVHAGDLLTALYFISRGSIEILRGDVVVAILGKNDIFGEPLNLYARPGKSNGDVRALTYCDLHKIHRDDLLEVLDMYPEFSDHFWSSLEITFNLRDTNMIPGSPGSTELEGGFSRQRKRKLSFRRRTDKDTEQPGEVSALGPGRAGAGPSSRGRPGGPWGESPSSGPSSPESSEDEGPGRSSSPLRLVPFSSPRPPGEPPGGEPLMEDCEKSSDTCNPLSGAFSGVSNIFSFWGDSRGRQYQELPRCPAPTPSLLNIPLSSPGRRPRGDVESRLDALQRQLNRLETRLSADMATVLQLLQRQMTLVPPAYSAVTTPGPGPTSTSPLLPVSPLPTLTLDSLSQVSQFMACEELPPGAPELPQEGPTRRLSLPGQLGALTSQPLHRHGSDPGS

| SMILES | clinical observations ([1]; 100 mg/kg and 125 mg/kg) | clinical observations ([1]; 50 and 75 mg/kg) | IC50 [2] [µM] | Methadone Active Agent/Methadone Ratio (hERG IC50) [2] | clinical observations ([1]; doses up to 100 mg/kg) |
| --- | --- | --- | --- | --- | --- |
| C/C=C(/OC(=O)N(C)CCCCNC(=O)[C@H](CCCNC(=N)N)NC(=O)c1ccccc1)C(C[C@@H](C)N(C)C)(c1ccccc1)c1ccccc1.O=C(O)C(F)(F)F [Levo-Butyl active agent, (R)-6-(dimethylamino)-4,4-diphenylhept-2-en-3-yl (4-((S)-2-benzamido-5-guanidinopentanamido)butyl)(methyl)carbamate 2,2,2-trifluoroacetate] | no clinical observations through 72 hr period or limited observations | some observations | 51.5 | 27.3 |  |
| C/C=C(/OC(=O)N(C)C(C)CNC(=O)[C@H](CCCNC(=N)N)NC(=O)c1ccccc1)C(C[C@@H](C)N(C)C)(c1ccccc1)c1ccccc1.O=C(O)C(F)(F)F (stereo partly drawn) [Levo 1ME active agent, (R)-6-(dimethylamino)-4,4-diphenylhept-2-en-3-yl (1-((S)-2-benzamido-5-guanidinopentanamido)propan-2-yl)(methyl)carbamate 2,2,2-trifluoroacetate] |  |  | > 100 | >53 | did not have any clinical observations |
| C/C=C(/OC(=O)N(C)C[C@@H](C)NC(=O)[C@H](CCCNC(=N)N)NC(=O)c1ccccc1)C(C[C@@H](C)N(C)C)(c1ccccc1)c1ccccc1.O=C(O)C(F)(F)F [Levo 2RME active agent, (R)-6-(dimethylamino)-4,4-diphenylhept-2-en-3-yl ((R)-2-((S)-2-benzamido-5-guanidinopentanamido)propyl)(methyl)carbamate 2,2,2-trifluoroacetate] | no clinical observations through 72 hr period or limited observations | some observations | 29.4 | 15.6 |  |
| CCC(=O)C(CC(C)N(C)C)(c1ccccc1)c1ccccc1 (racemic) [Racemic Methadone HCl, Methadone] |  |  | 1.89 |  |  |
